The subject of this series is EGFP. The conditions noted are these: for Basal expression levels (%): GFP(%): median green fluorescence of transfected vs untransfected cells in same well, without ligand, HEK293T tTA-d2EGFP; for η (dynamic range): ratio of GFP(%) at high (3 mM) and low (1 μM) theophylline concentrations. The procedure:
The functionality of shRNA switches was assessed in mammalian cell culture. Applicants transiently transfected plasmids harboring S1 and various switch controls transcribed from a U6 promoter into HEK293T cells stably expressing EGFP (Abbas-Terki et al, 2002).
In this example, Applicants systematically evaluated the tuning capabilities of shRNA switches with the aid of a mathematical model relating ligand concentration and target gene expression levels. Standard model parameters were incorporated to represent each chemical step from the proposed mechanism (Example 7). […] These assumptions yield the following relationship between relative expression levels of the target gene (f; output) and exogenous ligand concentration (L; input): f=1−e·fshRNA[1+KComp(1+KApt·L)]^−h, (1)
The power of this model lies in the ability to calculate realistic parameter values from a minimal set of experiments: fshRNA can be found in one experiment by measuring the relative knockdown of the target gene induced by an shRNA that contributes the shRNA stem, e can be calculated from basal expression levels from a few shRNA switches that strongly prefer the active conformation, and h can be calculated by generating a ligand response curve with one shRNA switch—as long as administration of the highest ligand concentration results in negligible knockdown of the target gene. The remaining model parameters, KComp and KApt, can be found from the same response curve used to calculate […], since varying KApt only changes the EC50 while varying KComp changes both EC50 and basal expression levels. A summary of the model parameters and how values are experimentally obtained are included in Table III below.
To investigate the validity of the model, Applicants experimentally determined model parameter values as described above: fshRNA was equated to the knockdown achieved with the original shRNA targeting EGFP (sh); e was calculated from the average basal expression levels produced by shRNA switches S5, S7, S9, and S10; and KComp, KApt, and h were determined by a model fit of the theophylline response curve for S1. […] The EC50 is related to KApt and KComp according to the following: EC50=(1+KComp^−1)KApt^−1, (4)
Cell culture and transfection. All cells were maintained at 37° C. in a 5% CO2-humidified incubator. HEK293T, HEK293, HeLa, and HEK293T tTA-d2EGFP cells were maintained in minimal essential medium (MEM) alpha media (Invitrogen) supplemented with 10% fetal bovine serum (FBS) (Invitrogen), whereas MDA-MB-231 cells were maintained in RMPI 1640 with glutamine (Invitrogen) supplemented with 10% FBS. Cells were transfected one day after seeding using Fugene 6 (Roche) according to the manufacturer's instructions, followed by the immediate addition of ligand. HEK293T tTA-d2EGFP were transfected with shRNA vector (250 ng), whereas cells lacking endogenous GFP were cotransfected with shRNA vector (250 ng) and the pcDNA3.1(+) (Invitrogen) harboring the d2EGFP gene (25 ng) (Clontech). One day post-transfection the media and ligand were replaced. Transfected cells were collected three days post-transfection for flow cytometry analysis.
Cell fluorescence analysis. Three days post-transfection, cells were trypsinized and subjected to flow cytometry analysis using the Cell Lab Quanta SC MPL (Beckman Coulter). Cells were first gated twice for (1) viability as assessed by electronic volume (EV) versus side scatter (SS) and (2) green fluorescence above autofluorescence to remove a nonfluorescent subpopulation.

Take “S10: EGFP shRNA switch, larger theophylline aptamer, combined switching strand changes from S4; Table I (pCS808) (CTCGATACCAGCATCGACTCTTCGATGCCCTTGGCAGCGAGCTGACCCTGACTAGA)”: the “Basal expression levels (%)” value was found to be 29.4% and the “η (dynamic range)” value is 3.60.

As for “S11: EGFP shRNA switch with theophylline aptamer variant (shorter aptamer stem); Table I (pCS634) (CTCGAGATACCAGCCGAAAGGCCCTTGGCAGCTCGGGCTGACCCTGACTAGA)”, the “Basal expression levels (%)” value is 20.0% and the “η (dynamic range)” value is 4.20.

For the molecule “S12: EGFP shRNA switch with theophylline aptamer variant (shorter aptamer stem); Table I (pCS635) (CTCGAGATACCACCGAAAGGCCTTGGCAGCTCGGGCTGACCCTGACTAGA)”, the “Basal expression levels (%)” value is recorded as 13.4% and the “η (dynamic range)” value is given as 4.06.

As for “S13: optimized EGFP shRNA switch, smaller theophylline aptamer; Table I (pCS911) (CTCGAGATACCAGCCGAAAGGCCCTTGGCAGCTCGGGCTGACCCTGCTAGA)”, the “Basal expression levels (%)” value is 16.7% and the “η (dynamic range)” value was found to be 5.61.

“S14: EGFP shRNA switch, smaller theophylline aptamer; Table I (pCS908) (CTCGATACCAGCCGAAAGGCCCTTGGCAGCGAGCTGACCCTGCTAGA)”: the “Basal expression levels (%)” value was determined as 14.3% and the “η (dynamic range)” value is given as 2.86.

On to “S15: EGFP shRNA switch, smaller theophylline aptamer; Table I (pC5909) (CTCGATACCAGCCGAAAGGCCCTTGGCAGCGGGCTGACCCTGCTAGA)”, for which the “Basal expression levels (%)” value was 11.2% and the “η (dynamic range)” value is reported as 2.56.

Consider “S16: EGFP shRNA switch, smaller theophylline aptamer; Table I (pCS910) (CTCGATACCAGCCGAAAGGCCCTTGGCAGCGAGCTGACCCTGACTAGA)”, for which the “Basal expression levels (%)” value was 21.7% and the “η (dynamic range)” value was determined as 3.85.

As to “S17: EGFP shRNA switch, smaller theophylline aptamer; Table I (pCS941) (CTCGAGATACCAGCCGAAAGGCCCTTGGCAGCTCGAGCTGACCCTGCTAGA)”, the “Basal expression levels (%)” value came to 17.5% and the “η (dynamic range)” value was found to be 3.12.

Regarding “S18: EGFP shRNA switch, smaller theophylline aptamer; Table I (pCS942) (CTCGAGATACCAGCCGAAAGGCCCTTGGCAGCTCGAGCTGACCCTACTAGA)”, the “Basal expression levels (%)” value was 19.5% and the “η (dynamic range)” value came out at 3.89.

Take “S19: EGFP shRNA switch, smaller theophylline aptamer; Table I (pCS1001) (CTCGAGATACCAGCCGAAAGGCCCTTGGCAGCTCGGGCTGACCCTGAACTAGA)”: the “Basal expression levels (%)” value is on record as 38.3% and the “η (dynamic range)” value is 2.38.

Regarding “S20: EGFP shRNA switch, smaller theophylline aptamer; Table I (pCS1002) (CTCGAGATACCAGCCGAAAGGCCCTTGGCAGCTCGGGCTGACCCTGAAGCTAGA)”, the “Basal expression levels (%)” value amounted to 49.8% and the “η (dynamic range)” value stood at 1.75.

As for “S21: EGFP shRNA switch, smaller theophylline aptamer; Table I (pCS1003) (CTCGAGATACCAGCCGAAAGGCCCTTGGCAGCTCGGGCTGACCCTGGCTAGA)”, the “Basal expression levels (%)” value stood at 10.8% and the “η (dynamic range)” value was 2.52.

As for “S22: EGFP shRNA switch, smaller theophylline aptamer; Table I (pCS1004) (CTCGATACCAGCCGAAAGGCCCTTGGCAGCGAGCTGACCCTGAACTAGA)”, the “Basal expression levels (%)” value was 35.0% and the “η (dynamic range)” value is reported as 2.73.

For “S23: EGFP shRNA switch, smaller theophylline aptamer; Table I (pCS1061) (CTCGAGATACCAGCCGAAAGGCCCTTGGCAGCTCGAGCTGATCCTGCTAGA)”, the “Basal expression levels (%)” value was determined as 16.6% and the “η (dynamic range)” value was 3.30.

Regarding “S24: EGFP shRNA switch, smaller theophylline aptamer; Table I (PCS1062) (CTCGAGATACCAGCCGAAAGGCCCTTGGCAGCTCGGGCTGATCCTGCTAGA)”, the “Basal expression levels (%)” value was 10.8% and the “η (dynamic range)” value is reported as 3.00.

For the molecule “S25: EGFP shRNA switch, smaller theophylline aptamer; Table I (pCS1063) (CTCGAGATACCAGCCGAAAGGCCCTTGGCAGCTCGGGCTGATCCTGACTAGA)”, the “Basal expression levels (%)” value came out at 11.8% and the “η (dynamic range)” value worked out at 2.63.

B1: S1: initial shRNA switch targeting EGFP, theophylline aptamer; Table I (pCS630), SEQ ID NO: 48 (nucleic acid)
chain: GGUGCAGAUGAACUUCAGGGUCAGCUCGAGAUACCAGCAUCGACUCUUCGAUGCCCUUGGCAGCUCGGGCUGACCCUGACUAGAGCUGACCCUGAAUCAUCUGCACCUU
As to B1, the “Basal expression levels (%)” value was 33.8% and the “η (dynamic range)” value was found to be 2.71. The “knockdown of EGFP” value (compared to original shRNA (sh) and scrambled shRNA (neg), flow cytometry) is “intermediate knockdown”. Further, the “e (RNAi processing efficiency)” value (from average basal expression levels of switches that highly favor the active conformation) is 0.85. Where the note is “in the presence of theophylline”, the “theophylline dependence of GFP levels” value is “increased in a dose-dependent manner”. Under “least-squares model fit of theophylline response curve”, the “KComp (partitioning coefficient between active and inactive conformations)” value came to 0.17. Besides, the “h (Hill coefficient)” value (model fit of theophylline response curve) came to 1.33. Moreover, the “KApt (association constant between ligand and formed aptamer)” value (model fit of theophylline response curve in cells) stood at 0.016 µM⁻¹. Also, for the setting “read-out: effective concentration to achieve 50% activity (EC50), theophylline concentration, GFP levels, HEK293T cells stably expressing EGFP”, the EC50 is approximately 300 µM. For the same molecule, the “fshRNA (relative knockdown by original shRNA)” value (set by separate transfection with original shRNA targeting EGFP (sh), parameter of the S1 transfer function) is listed as 0.94.

For the origin of these results see patent publication US8367815B2, “Modular polynucleotides for ligand-controlled regulatory systems” (California Institute of Technology, priority 2007, dated 2013).
